Assay results: US4883791A, “25S,26-dihydroxycholecalciferol in the treatment of hypercalcitriolemic disease states” (Board of Regents, The University of Texas System, priority 1987, dated 1989)
Entries after “also recorded” stand apart in the source; their conditions may differ.

Assays:
[1] = Serum 25S,26(OH)2 D level after administration (rat serum vitamin D binding protein assay); format: in vivo, Sprague-Dawley rats (adult female); conditions: mean ± SE
Excerpt: (§1) Adult female Sprague-Dawley rats weighing between 190-200 g were used in all studies and were purchased from Harlan (Houston, TX). The animals were housed in the animal resource facility and were fed a standard vitamin D-replete rat chow diet (2.0% calcium and 0.9% phorphorus, Tekland, Winfield, OH) ad lib. After four to five days of equlibration the animals were divided into appropriate study groups and injected subcutaneously each day with various doses of 25(S),26(OH)2 D3 or 1,25(OH)2 D3 metabolites. In some experiments, animals received both metabolites as two separate injections. Control animals received only vehicle (propylene glycol).
Two ml of serum was obtained for each rat for measurement of 25(S),26(OH)2 D3, and 1,25-(OH)2 D3. […] This chromatographic system effectively separates 250HD (5-11 ml) from the dihydroxy metabolites (14-30 ml). The trihydroxy metabolite 1,25,26(OH)3 D is eluted from the column by changing the solvent system to 8:2:2:0.015 (hexane:chloroform:methanol:H2 O) after elution of the dihydroxy metabolites and collecting the next 12 ml.
250HD was purified on a 5% 2-propanol in hexane solvent system. The three dihydroxyvitamin D metabolites were isolated and purified using an 11% 2-propanol in hexane solvent system. […] The assay of 1,25(OH)2 D was accomplished using the chick intestinal receptor protein.
(§2) Values in parenthesis represent p value of significant difference between
(§3) dosed and control animals as determined by nonparametric analysis and
(§4) Welch's approximation to the t test. All values expressed as mean ± SE
(§5) for seven rats per group.
(§6) ^a 1,25(OH)2 D3 administered subcutaneously at a dose of
(§7) 0.15 μg/d/rat for three days
(§8) ^b 25S,26(OH)2 D3 administered subcutaneously for seven day
(§9) at a dose of 20 μg/d/rat; on days 5, 6, and 7 both 25S,26(OH)2
(§10) D3 and 1,25(OH)2 D3 (0.15 μg/d/rat) were given as two

[2] = Effect of 25S,26(OH)2 D3 administration on 1,25(OH)2 D3 mediated increases in serum 1,25(OH)2 D3; format: in vivo, Sprague-Dawley rats (adult female); conditions: for serum 1,25(OH)2 D: mean ± SE
Excerpt: as §1
Two ml of serum was obtained for each rat for measurement of 25(S),26(OH)2 D3, and 1,25-(OH)2 D3. After spiking the samples with approximately 1200 cpm of radiolabeled 250HD3, 24,25-(OH)2 D3 and 1,25(OH)2 D3 and allowing the samples to equilibrate for 30 minutes, isolation of the vitamin D metabolites was accomplished as described in Bishop JE, Norman AW, Coburn JW, Roberts PA, Henry, HL 1980 "Determination of the concentration of 25-hydroxyvitamin D, 24,25-dihydroxyvitamin D and 1,25-dihydroxyvitamin D in a single two-milliliter plasma sample." Min Elect Metab 3: 181. Further separation and partial purification of the metabolites was effected with lipohilic Sephadex (Sigma, St. Louis, MO) liquid gel chromatography using a 9:1:1:0.015 (hexane:chloroform:methanol:H2 O) solvent system and a 10×1 cm gel bed as previously described by Eisman JA, Hamstra AJ, Kream BD, DeLuca HF, 1975, "A sensitive, precise and convenient method for determination of 1,25-dihydroxyvitamin D in human plasma." Arch Biochem Biophys 176: 235. This chromatographic system effectively separates 250HD (5-11 ml) from the dihydroxy metabolites (14-30 ml). The trihydroxy metabolite 1,25,26(OH)3 D is eluted from the column by changing the solvent system to 8:2:2:0.015 (hexane:chloroform:methanol:H2 O) after elution of the dihydroxy metabolites and collecting the next 12 ml.
Final resolution and purification of the vitamin D metabolites was performed with high pressure liquid chromatography as previously described in Zerwekh et al., 1983, "Extra-renal production of 24,25-dihydroxyvitaminD in chronic renal failure during 25-hydroxyvitamin D3 therapy." Kid Int. 23: 401 and Pak et al., 1982, "Effects of short-term glucocorticoid administration in primary hyperparathyroidism: comparison to sarcoidiosis J. Clin. Endrocrinol Metab. 54: 824. 250HD was purified on a 5% 2-propanol in hexane solvent system. The three dihydroxyvitamin D metabolites were isolated and purified using an 11% 2-propanol in hexane solvent system. The assay of 25S,26-(OH)2 D was performed using the rat serum vitamin D binding protein assay system described in Haddad JG, Chyu KF 1971 "competitive protein binding assay for 25-hydroxycholecalciferol." J Clin Endocrinol Metab 33: 992. The assay of 1,25(OH)2 D was accomplished using the chick intestinal receptor protein.
as §2, §3, §4, §5, §6, §7, §8, §9, §10

SMILES | serum 25S,26(OH)2 D ([1]; Exp. 1, 1,25(OH)2 D3 alone, 0.15 μg/d/rat s.c., three days, seven rats, control 1.9 ± 0.2) | serum 25S,26(OH)2 D ([1]; Exp. 2, 1,25(OH)2 D3 alone s.c., seven rats, control 2.0 ± 0.2) | serum 25S,26(OH)2 D ([1]; Exp. 3, 1,25(OH)2 D3 alone s.c., seven rats, control 1.20 ± 0.1) | serum 1,25(OH)2 D ([2]; Exp. 1, 1,25(OH)2 D3 alone, 0.15 μg/d/rat s.c., three days, seven rats, control 25 ± 3, p < 0.001) | serum 1,25(OH)2 D ([2]; Exp. 2, 1,25(OH)2 D3 alone s.c., seven rats, control 23 ± 3, p = 0.006) | serum 1,25(OH)2 D ([2]; Exp. 3, 1,25(OH)2 D3 alone s.c., seven rats, control 27 ± 4, p < 0.001) | serum 25S,26(OH)2 D ([1]; Exp. 1, 25S,26(OH)2 D3 20 μg/d/rat s.c. seven days + 1,25(OH)2 D3 0.15 μg/d/rat days 5, 6, 7, control 1.9 ± 0.2, p < 0.001) | serum 25S,26(OH)2 D ([1]; Exp. 2, 25S,26(OH)2 D3 + 1,25(OH)2 D3 s.c., seven rats, control 2.0 ± 0.2, p < 0.01) | serum 25S,26(OH)2 D ([1]; Exp. 3, 25S,26(OH)2 D3 + 1,25(OH)2 D3 s.c., seven rats, control 1.20 ± 0.1, p < 0.006) | serum 1,25(OH)2 D ([2]; Exp. 1, 25S,26(OH)2 D3 20 μg/d/rat s.c. seven days + 1,25(OH)2 D3 0.15 μg/d/rat days 5, 6, 7, control 25 ± 3) | serum 1,25(OH)2 D ([2]; Exp. 2, 25S,26(OH)2 D3 + 1,25(OH)2 D3 s.c., seven rats, control 23 ± 3) | serum 1,25(OH)2 D ([2]; Exp. 3, 25S,26(OH)2 D3 + 1,25(OH)2 D3 s.c., seven rats, control 27 ± 4) | reduction of serum / endogenous 1,25-dihydroxycholecalciferol ([2]; result in words)
C=C1/C(=C\C=C2/CCC[C@]3(C)[C@@H]([C@H](C)CCCC(C)(C)O)CC[C@@H]23)C[C@@H](O)C[C@@H]1O [1,25(OH)2 D3, 1α,25-dihydroxycholecalciferol, reference compound] | 3.0 ± 0.8 ng/mL | 3.20 ± 0.3 ng/mL | 0.9 ± 0.3 ng/mL | 206 ± 17 pg/mL | 175 ± 52 pg/mL | 180 ± 45 pg/mL |  |  |  |  |  |  | 
C=C1CC[C@H](O)C/C1=C/C=C1\CCC[C@]2(C)[C@@H]([C@H](C)CCC[C@](C)(O)CO)CC[C@@H]12 [25S,26(OH)2 D3, 25S,26-dihydroxycholecalciferol] |  |  |  |  |  |  | 295 ± 7 ng/mL | 168 ± 14 ng/mL | 236 ± 28 ng/mL | 59 ± 3 pg/mL | 46 ± 4 pg/mL | 38 ± 6 pg/mL | lowers endogenous levels of 1α,25-dihydroxycholecalciferol; also recorded: active in reducing serum concentrations of 1,25-dihydroxycholecalciferol
